Assay results published in US8853392B2, “Benzamide mGluR5 positive allosteric modulators and methods of making and using same” (Vanderbilt University, priority 2007, dated 2014).
“Also recorded” adds a separate entry of the source. Where two headings read alike, the source gives them in different places.

Experiments:
[1] = tested on: Novel Object Recognition (NOR); assay: Novel Object Recognition (NOR); assay type: in vivo; details: FIG. 11
Text: (§1) mGluR5 potentiation has also been linked to improvement of cognition (Kinney, G. G.; O'Brien, Lemaire, W.; Burno, M.' Bickel, D. J.; Clements, M. K.; Wisnoski, D. D.; Lindsley, C. W.; Tiller, P. R.; Smith, S.; Jacobson, M. A.; Sur, C.; Duggan, M. E.; Pettibone, D. J.; Williams, Jr., D. W. ‘A novel selective allosteric modulator of metabotropic glutamate receptor subtype 5 (mGluR5) has an antipsychotic profile in rat behavioral models’ J. Pharmacol. Exp. Therapeut. 2005, 313(1), 199; Lindsley, C. W.; Wisnoski, D. D.; Leister, W. H.; O'Brien, J. A.; Lemiare, W.; Williams, Jr., D. L.; Burno, M.; Sur, C.; Kinney, G. G.; Pettibone, D. J.; iller, P. R.; Smith, S.; Duggan, M. E.; Hartman, G. D.; Conn, P. J.; Huff, J. R. ‘Discovery of positive allosteric modulators for the metabotropic glutamate receptor subtype from a series of N-(1,3-Diphenyl-1H-pyrazol-5-yl)benzamides that potentiate receptor function in vivo’ J. Med. Chem. 2004, 47, 5825; Epping-Jordan M. P., Nayak, S., Derouet, F., Dominguez, H., Bessis A. S., Le Poul E., Ludwig B. L. Mutel V., Poli S. M. and Rocher J. P. In Vivo Characterization of mGluR5 Positive Allosteric Modulators as Novel Treatments for Schizophrenia and Cognitive Dysfunction Neuropharmacology 2005, 49, 243.). […]

[2] = tested on: hippocampal long term potentiation (LTP); assay: hippocampal long term potentiation (LTP); assay type: cell-based; details: after applying a stimulus to the synapse, FIG. 17
Text: as §1

[3] = tested on: prepulse inhibition (PPI); assay: reversal of amphetamine-induced prepulse inhibition (PPI) of startle; assay type: in vivo, rats; details: FIG. 15, 16; four prepulse intensities above background
Text: Schizophrenic patients show decreased measures of sensorimotor gating, such as prepulse inhibition (PPI) of startle, and preclinical models of PPI in rats are routinely used to predict antipsychotic efficacy. In fact, PPI can be measured in humans and rats employing identical stimulus parameters yielding similar responses (Braff, D. L.; Geyer, M. A.; Swerdlow, N. R. ‘Human studies of prepulse inhibition of startle: normal subjects, patient groups, and pharmacological studies.’ Psychopharmacology 2001, 156(2-3), 234-258; Braff, D. L.; Geyer, M. A. ‘Sensorimotor gating and schizophrenia. Human and animal model studies.’ Archives of general psychiatry 1990, 47(2), 181-8; Braff, D. L.; Geyer, M. A.; Swerdlow, N. R. ‘Human studies of prepulse inhibition of startle: normal subjects, patient groups, and pharmacological studies.’ Psychopharmacology 2001, 156(2-3), 234-258; Weiss, I. C.; Feldon, J. ‘Environmental animal models for sensor motor gating deficiencies in schizophrenia: a review.’ Psychopharmacology 2001, 156(2-3), 305-326; Thomsen, M.; Woertwein, G.; Fink-Jensen, A.; Woldbye, D. P. D.; Wess, J.; Caine, S. B. ‘Decreased prepulse inhibition and increased sensitivity to muscarinic, but not dopaminergic drugs in M5 muscarinic acetylcholine receptor knockout mice.’ Psychopharmacology 2007, 192(1), 97-110.). […]

[4] = tested on: amphetamine-induced hyperlocomotion; assay: reversal of amphetamine-induced hyperlocomotion; assay type: in vivo, male Sprague-Dawley rats; details: rats, i.p., FIG. 8-10, 13, 14
Protocol: For example, compounds of the present invention reverse amphetamine-induced hyperlocomotion in male Sprague-Dawley rats at doses ranging from 1 to 100 mg/kg i.p. Data for three example compounds follow:
Locomotor activity can be assessed as mean distance traveled (cm) in standard 16×16 photocell testing chambers measuring 43.2 cm (L)×43.2 cm (W)×30.5 cm (H) (Med Associates, St. Albans, Vt.). Animals can be habituated to individual activity chambers for at least 60 min prior to drug administration. Following administration of appropriate drugs or vehicle, activity can be recorded for a 3 hr time period. Data can be expressed as the mean (±SEM) distance traveled recorded in 10 min intervals over the test period. The data can be analyzed using repeated measures analysis of variance (ANOVA) followed by post-hoc testing using Tukey's HSD test, when appropriate. A difference can be considered significant when p≦0.05.

rat mGluR5 = target: T1, rat mGluR5 (Rattus norvegicus, UniProt P31424); assay: potentiation of mGluR5 response to glutamate, Ca2+ fluorescence (FDSS) in HEK cells transfected with rat mGluR5; assay type: cell-based
T1 construct: expressed in transfected cells; host or cells: human embryonic kidney (HEK) cells
T1 sequence (P31424 21-1203): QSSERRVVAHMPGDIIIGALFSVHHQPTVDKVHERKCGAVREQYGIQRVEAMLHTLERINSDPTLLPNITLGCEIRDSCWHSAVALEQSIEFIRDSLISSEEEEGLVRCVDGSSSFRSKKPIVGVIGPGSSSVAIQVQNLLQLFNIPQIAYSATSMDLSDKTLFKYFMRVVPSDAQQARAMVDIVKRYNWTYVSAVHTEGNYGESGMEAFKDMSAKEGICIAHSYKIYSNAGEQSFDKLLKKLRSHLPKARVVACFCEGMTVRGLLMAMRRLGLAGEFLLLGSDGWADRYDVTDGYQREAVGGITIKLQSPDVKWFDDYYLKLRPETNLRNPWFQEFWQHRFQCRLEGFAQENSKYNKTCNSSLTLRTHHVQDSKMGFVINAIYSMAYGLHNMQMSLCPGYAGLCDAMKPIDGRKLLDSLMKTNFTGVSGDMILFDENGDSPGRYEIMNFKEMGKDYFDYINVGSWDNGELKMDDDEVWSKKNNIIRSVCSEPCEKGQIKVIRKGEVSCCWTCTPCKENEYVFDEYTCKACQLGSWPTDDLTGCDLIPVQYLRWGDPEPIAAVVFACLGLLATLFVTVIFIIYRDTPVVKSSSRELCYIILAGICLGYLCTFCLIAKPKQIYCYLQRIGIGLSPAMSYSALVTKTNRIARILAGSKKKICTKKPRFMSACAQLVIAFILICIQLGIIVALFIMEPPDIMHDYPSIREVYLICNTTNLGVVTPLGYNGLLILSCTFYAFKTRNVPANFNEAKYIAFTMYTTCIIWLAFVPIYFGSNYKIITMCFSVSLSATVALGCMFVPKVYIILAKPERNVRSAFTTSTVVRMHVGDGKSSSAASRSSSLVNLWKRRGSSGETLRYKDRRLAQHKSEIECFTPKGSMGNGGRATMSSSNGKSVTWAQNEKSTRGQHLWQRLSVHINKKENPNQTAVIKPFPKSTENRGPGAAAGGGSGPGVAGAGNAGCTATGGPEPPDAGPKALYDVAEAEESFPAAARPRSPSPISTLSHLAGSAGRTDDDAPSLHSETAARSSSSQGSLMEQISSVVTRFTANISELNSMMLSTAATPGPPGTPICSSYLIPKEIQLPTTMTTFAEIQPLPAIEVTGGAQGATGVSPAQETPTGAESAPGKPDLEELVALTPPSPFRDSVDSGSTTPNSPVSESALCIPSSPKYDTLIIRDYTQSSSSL
Outline: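 HEK cells expressing rat mGluR5, loaded with 2 μM fluo-4 AM; buffer HBSS, 20 mM HEPES, 2.5 mM probenecid, pH 7.4, 0.1% DMSO final. Compound added 5 min before glutamate, typically at EC20, with Ca2+ fluorescence read over 1 min and normalized to maximal agonist response. Potentiator EC50 from curve fitting; agonist curve shifts measured at fixed compound concentrations.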

[5] = Table 1, EC50 for potentiating the mGluR5 receptor, unit inferred, read-out: EC50

O=C(c1ccc(F)cc1)N1CCC[C@H](c2nc(-c3ccc(F)cc3)no2)C1 [ADX47273]
improvement in Novel Object Recognition (NOR) [1]: robust and significant improvement in NOR; also recorded: cognitive improvement | increase in strength of synaptic connections (hippocampal LTP) [2]: induced a robust increase in synaptic connections | reversal of amphetamine-induced prepulse inhibition (PPI) [3]: affords similar results; also recorded: reversal of amphetamine-induced prepulse inhibition (PPI) | reversal of amphetamine-induced hyperlocomotion [4]: afforded similar results; also recorded: reversal of amphetamine-induced hyperlocomotion

CCCC1(O)CCN(C(=O)c2ccc(C#Cc3ccccc3)cc2)CC1 [Compound VU60/C109B2, (4-hydroxy-4-propylpiperidin-1-yl)(4-(phenylethynyl)phenyl)methanone]
reversal of amphetamine-induced hyperlocomotion [4]: efficacy in reversing amphetamine-induced hyperlocomotion | reversal of amphetamine-induced hyperlocomotion ([4]; listed as VU60): in vivo efficacy | Emax (rat mGluR5; HEK293, read-out: % Glu Max): 90% | Emax (rat mGluR5; HEK293, read-out: % Glu Max, maximum extent of potentiation, normalized to maximal response to glutamate, SAR tables): 90.1% | EC50 (rat mGluR5; [5]): 1610 nM | EC50 (rat mGluR5; in vitro potency, read-out: In vitro): 1250 nM

O=C(Nc1cc(-c2ccccc2)nn1-c1ccccc1)c1ccc([N+](=O)[O-])cc1 [VU29]
increase in strength of synaptic connections (hippocampal LTP) [2]: induced a robust increase in synaptic connections

(4-hydroxypiperidin-1-yl)(4-(phenylethynyl)phenyl)methanone [Compound VU13]
reversal of amphetamine-induced hyperlocomotion ([4]; listed as VU000013): affords similar results | reversal of amphetamine-induced hyperlocomotion ([4]; listed as VU00013): reversal of amphetamine-induced hyperlocomotion | EC50 (rat mGluR5; [5]): 28.3 nM
